Assay results published in US8557796B2, “Substituted 1-oxa-2,8-diaza-spiro [4,5] dec-2-ene derivatives and related treatment methods” (Gruenenthal GmbH, priority 2001, dated 2013).

Target: T1, NA transporter (Rattus norvegicus, UniProt Q9WTR4)
T1 construct: synaptosomes from rat brain regions were freshly isolated; from tissue; host or cells: P2 synaptosome fraction from hypothalamus of male rat brain
Experiment: Noradrenalin uptake inhibition (NA-uptake) in synaptosomes
Format: biochemical
Conditions: rat hypothalamus synaptosomes
Description: Tests on Noradrenalin Uptake Inhibition (NA-Uptake Inhibition)
In order to be able to carry out these in vitro studies, synaptosomes from rat brain regions were freshly isolated.

T1 sequence (Q9WTR4 1-597): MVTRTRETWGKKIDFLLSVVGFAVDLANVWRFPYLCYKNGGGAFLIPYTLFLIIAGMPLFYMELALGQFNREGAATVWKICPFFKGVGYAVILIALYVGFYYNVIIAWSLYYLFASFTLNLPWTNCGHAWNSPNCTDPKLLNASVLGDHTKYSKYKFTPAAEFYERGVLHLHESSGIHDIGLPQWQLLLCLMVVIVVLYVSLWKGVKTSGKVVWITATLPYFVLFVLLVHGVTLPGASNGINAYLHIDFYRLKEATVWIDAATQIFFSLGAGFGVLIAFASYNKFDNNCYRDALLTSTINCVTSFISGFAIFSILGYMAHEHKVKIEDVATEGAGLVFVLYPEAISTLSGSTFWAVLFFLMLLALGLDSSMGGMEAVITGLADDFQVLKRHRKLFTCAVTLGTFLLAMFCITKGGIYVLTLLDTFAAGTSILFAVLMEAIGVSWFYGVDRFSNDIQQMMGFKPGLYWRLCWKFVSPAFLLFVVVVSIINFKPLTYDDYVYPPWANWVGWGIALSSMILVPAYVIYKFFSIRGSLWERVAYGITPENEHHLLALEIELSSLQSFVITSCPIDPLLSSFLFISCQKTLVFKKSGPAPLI

Compound | inhibition at 10 µM | also measured
CN(C)S(=O)(=O)N1CCC2(CC1)CC(C(=O)NC1CCCC1OCc1ccccc1)=NO2 (stereo not shown) [Example 163, 8-dimethylsulphamoyl-1-oxa-2,8-diaza-spiro[4,5]dec-2-ene-3-acarboxylic cid (2-benzyloxy-cyclopentyl)-amide] | – | NA-uptake, 10 μM, % inhibition: 62%
COc1ccc(S(=O)(=O)N2CCC3(CC2)CC(C(=O)NC2CCCC2OCc2ccccc2)=NO3)cc1 (stereo not shown) [Example 169, 8-(4-methoxy-benzenesulphonyl)-1-oxa-2,8-diaza-spiro[4,5]dec-2-ene-3-carboxylic acid (2-benzyloxy-cyclopentyl)-amide] | 64% | –
CC(Oc1ccccc1)C(=O)N1CCC2(CC1)CC(C(=O)NCC1CC1)=NO2 (stereo not shown) [Example 123, 8-(2-phenoxy-propionyl)-1-oxa-2,8-diaza-spiro[4,5]dec-2-ene-3-carboxylic acid cyclopropylmethyl-amide] | 42% | –
O=C(NCCc1ccccc1)C1=NOC2(CCN(S(=O)(=O)Cc3ccccc3)CC2)C1 [Example 12, 8-phenylmethanesulphonyl-1-oxa-2,8-diaza-spiro[4,5]dec-2-ene-3-carboxylic acid phenethyl-amide] | 54% | –
O=C(NCc1ccc2c(c1)OCO2)C1=NOC2(CCN(S(=O)(=O)c3ccc(Cl)s3)CC2)C1 [Example 30, 8-(5-chloro-thiophene-2-sulphonyl)-1-oxa-2,8-diaza-spiro[4,5]dec-2-ene-3-carboxylic acid (benzo[1,3]dioxol-5-ylmethyl)-amide] | 48% | –
O=C(Nc1ccccc1)C1=NOC2(CCN(C(=O)c3cccc(Cl)c3Cl)CC2)C1 [Example 172, 8-(2,3-dichloro-benzoyl)-1-oxa-2,8-diaza-spiro[4,5]dec-2-ene-3-carboxylic acid phenylamide] | 41% | –
O=C(NCC1CC1)C1=NOC2(CCN(C(=O)c3ccc(OC(F)(F)F)cc3)CC2)C1 [Example 117, 8-(4-trifluoromethoxy-benzoyl)-1-oxa-2,8-diaza-spiro[4,5]dec-2-ene-3-carboxylic acid cyclopropylmethyl-amide] | 46% | –
Cc1ccc(S(=O)(=O)N2CCC3(CC2)CC(C(=O)Nc2ccc(Oc4ccccc4)cc2)=NO3)cc1 [Example 22, 8-(toluene-4-sulphonyl)-1-oxa-2,8-diaza-spiro[4,5]dec-2-ene-3-carboxylic acid (4-phenoxy-phenyl)-amide] | 42% | –
O=C(NCC1CC1)C1=NOC2(CCN(C(=O)c3ccc(SC(F)(F)F)cc3)CC2)C1 [Example 108, 8-(4-trifluoromethylsulphanyl-benzoyl)-1-oxa-2,8-diaza-spiro[4,5]dec-2-ene-3-carboxylic acid cyclopropylmethyl-amide] | 42% | –
Cc1onc(-c2c(F)cccc2Cl)c1C(=O)N1CCC2(CC1)CC(C(=O)NCc1ccccc1)=NO2 [Example 177, 8-[3-(2-chloro-6-fluorophenyl)-5-methyl-isoxazole-4-carbonyl]-1-oxa-2,8-diaza-spiro [4,5]dec-2-ene-3-carboxylic acid benzylamide] | 47% | –
O=C(NCc1ccccc1)C1=NOC2(CCN(S(=O)(=O)c3cccc(Cl)c3)CC2)C1 [Example 210, 8-(3-chloro-benzenesulphonyl)-1-oxa-2,8-diaza-spiro[4,5]dec-2-ene-3-carboxylic acid benzylamide] | 42% | –
CCOC(=O)N1CCC(NC(=O)C2=NOC3(CCN(S(=O)(=O)c4cccc(C(F)(F)F)c4)CC3)C2)CC1 [Example 122, 4-{[8-(3-trifluoromethyl-benzenesulphonyl)-1-oxa-2,8-diaza-spiro[4,5]dec-2-ene-3 carbonyl]-amino}-piperidine-1-carboxylic acid ethyl ester] | 41% | –
CCOC(=O)C1CCCCN1C(=O)C1=NOC2(CCN(C(=O)c3cc(C(C)(C)C)oc3C)CC2)C1 (stereo not shown) [Example 179, 1-[8-(5-tert-butyl-2-methyl-furan-3-carbonyl)-1-oxa-2,8-diaza-spiro[4,5]dec-2-ene-3-carbonyl]-piperidine-2-carboxylic acid ethyl ester] | 49% | –
O=C(NCc1ccccc1)C1=NOC2(CCN(C(=O)c3ccncc3)CC2)C1 [Example 102, 8-(pyridine-4-carbonyl)-1-oxa-2,8-diaza-spiro[4,5]dec-2-ene-3-carboxylic acid benzylamide] | 48% | –
COc1ccc(S(=O)(=O)N2CCC3(CC2)CC(C(=O)NC2CCCC2OCc2ccccc2)=NO3)cc1 (stereo not shown) [Example 121, 8-(4-methoxy-benzenesulphonyl)-1-oxa-2,8-diaza-spiro[4,5]dec-2-ene-3-carboxylic acid (2-benzyloxy-cyclopentyl)-amide] | – | NA-uptake, 10 μM, % inhibition (10 µM): 55%
O=C(NC1CCCC1)C1=NOC2(CCN(C(=O)c3cccnc3Oc3ccccc3)CC2)C1 [Example 153, 8-(2-phenoxy-pyridine-3-carbonyl)-1-oxa-2,8-diaza-spiro[4,5]dec-2-ene-3-carboxylic acid cyclopentylamide] | 45% | –
C=C(C)CN(CC)C(=O)C1=NOC2(CCN(S(=O)(=O)c3ccc(OC(F)(F)F)cc3)CC2)C1 [Example 103, 8-(4-trifluoromethoxy-benzenesulphonyl)-1-oxa-2,8-diaza-spiro[4,5]dec-2-ene-3carboxylic acid ethyl-(2-methyl-allyl)-amide] | 47% | –

Compound | inhibition at 10 µM | also measured
CCOC(=O)C1CCCCN1C(=O)C1=NOC2(CCN(C(=O)c3ccc(C(C)(C)C)cc3)CC2)C1 (stereo not shown) [Example 195, 1-[8-(4-tert-butyl-benzoyl)-1-oxa-2,8-diaza-spiro[4,5]dec-2-ene-3-carbonyl]-piperidine-2-carboxylic acid ethyl ester] | 41% | –
CN(C)S(=O)(=O)N1CCC2(CC1)CC(C(=O)NCCc1ccccc1)=NO2 [Example 7, 8-dimethylsulphamoyl-1-oxa-2,8-diaza-spiro[4,5]dec-2-ene-3-carboxylic acid phenethyl-amide] | 50% | –
Cc1ccccc1N1CCN(C(=O)C2=NOC3(CCN(S(=O)(=O)Cc4ccccc4)CC3)C2)CC1 [Example 133, (8-phenylmethanesulphonyl-1-oxa-2,8-diaza-spiro[4,5]dec-2-en-3-yl)-(4-o-tolyl-piperazin-l-yl)-methanone] | – | NA-uptake, 10 μM, % inhibition: 48%
COC(=O)c1ccccc1S(=O)(=O)N1CCC2(CC1)CC(C(=O)NCC(C)C)=NO2 [Example 138, 2-(3-isobutylcarbamoyl-1-oxa-2,8-diaza-spiro[4,5]dec-2-ene-8-sulphonyl)-benzoic acid methyl ester] | 49% | –
CC(Cc1ccc(Cl)cc1)NC(=O)C1=NOC2(CCN(S(=O)(=O)c3ccc(Cl)s3)CC2)C1 (stereo not shown) [Example 168, 8-(5-chloro-thiophene-2-sulphonyl)-1-oxa-2,8-diaza-spiro[4,5]dec-2-ene-3-carboxylic acid [2-(4-chloro-phenyl)-1-methyl-ethyl]-amide] | 79% | –
CCSCCNC(=O)C1=NOC2(CCN(C(=O)c3cc(C(C)(C)C)nn3C)CC2)C1 [Example 185, 8-(5-tert-butyl-2-methyl-2H-pyrazole-3-carbonyl)-1-oxa-2,8-diaza-spiro[4,5]dec-2-ene-3-carboxylic acid (2-ethylsulphanyl-ethyl)-amide] | 45% | –
CCOC(=O)C1CCCCN1C(=O)C1=NOC2(CCN(S(=O)(=O)c3ccc(Cl)s3)CC2)C1 (stereo not shown) [Example 155, 1-[8-(5-chloro-thiophene-2-sulphonyl)-1-oxa-2,8-diaza-spiro[4,5]dec-2-ene-3-carbonyl]-piperidine-2-carboxylic acid ethyl ester] | 41% | –
O=C(NCc1ccccc1)C1=NOC2(CCN(S(=O)(=O)c3cccs3)CC2)C1 [Example 136, 8-(thiophene-2-sulphonyl)-1-oxa-2,8-diaza-spiro[4,5]dec-2-ene-3-carboxylic acid benzylamide] | 53% | –
O=C(NC1CCCC1OCc1ccccc1)C1=NOC2(CCN(S(=O)(=O)c3ccc(F)cc3)CC2)C1 (stereo not shown) [Example 199] | – | NA-uptake, 10 μM, % inhibition: 78%
O=C(NC1CCCC1OCc1ccccc1)C1=NOC2(CCN(S(=O)(=O)Cc3ccccc3)CC2)C1 (stereo not shown) [Example 20, 8-phenylmethanesulphonyl-1-oxa-2,8-diaza-spiro[4,5]dec-2-ene-3-carboxylic acid (2-benzyloxy-cyclopentyl)-amide] | 70% | –
COc1ccc(Br)cc1S(=O)(=O)N1CCC2(CC1)CC(C(=O)NC1CCCC1)=NO2 [Example 173, 8-(5-bromo-2-methoxy-benzenesulphonyl)-1-oxa-2,8-diaza-spiro[4,5]dec-2-ene-3-carboxylic acid cyclopentylamide] | 60% | –
CN(CCCNC(=O)C1=NOC2(CCN(S(=O)(=O)c3ccc(Cl)s3)CC2)C1)c1ccccc1 [Example 89] | – | NA-uptake, 10 μM, % inhibition: 68%
O=C(NCCCc1ccccc1)C1=NOC2(CCN(S(=O)(=O)c3ccc(F)cc3)CC2)C1 [Example 193, 8-(4-fluoro-benzenesulphonyl)-1-oxa-2,8-diaza-spiro[4,5]dec-2-ene-3-carboxylic acid (3-phenyl-propyl)-amide] | 47% | –
O=C(NC1CCCC1)C1=NOC2(CCN(C(=O)c3ccccc3COC(=O)c3ccccc3)CC2)C1 [Example 188] | – | NA-uptake, 10 μM, % inhibition: 49%
Cc1ccc(C(C)NC(=O)C2=NOC3(CCN(S(=O)(=O)c4ccc(C)cc4)CC3)C2)cc1 (stereo not shown) [Example 45, 8-(toluene-4-sulphonyl)-1-oxa-2,8-diaza-spiro[4,5]dec-2-ene-3-carboxylic acid (1-p-tolyl-ethyl)-amide] | 59% | –
O=C(NCc1ccccc1)C1=NOC2(CCN(C(=O)COc3cccc(Cl)c3)CC2)C1 [Example 166, 8-[2-(3-chloro-phenoxy)-acetyl]-1-oxa-2,8-diaza-spiro[4,5]dec-2-ene-3-carboxylic acid benzylamide] | 53% | –
CC(Oc1ccccc1)C(=O)N1CCC2(CC1)CC(C(=O)NCc1ccccc1)=NO2 (stereo not shown) [Example 149, 8-(2-phenoxy-propionyl)-1-oxa-2,8-diaza-spiro[4,5]dec-2-ene-3-carboxylic acid benzylamide] | 50% | –
